Reference: ChEMBL document CHEMBL4265931, “Identification of dual Sigma1 receptor modulators/acetylcholinesterase inhibitors with antioxidant and neurotrophic properties, as neuroprotective agents” (Eur J Med Chem, 2018)
Activity calls are given as the source filed them. The rule behind the calls is not given here.

Legend:
[1] = target: Sigma non-opioid intracellular receptor 1 (Cavia porcellus, UniProt Q60492); assay: Displacement of [3H](+)-pentazocine from S1R in guinea pig brain cortex membranes after 120 mins by scintillation counting assay; assay type: cell membranes
Sequence of Sigma non-opioid intracellular receptor 1 (Q60492 whole entry): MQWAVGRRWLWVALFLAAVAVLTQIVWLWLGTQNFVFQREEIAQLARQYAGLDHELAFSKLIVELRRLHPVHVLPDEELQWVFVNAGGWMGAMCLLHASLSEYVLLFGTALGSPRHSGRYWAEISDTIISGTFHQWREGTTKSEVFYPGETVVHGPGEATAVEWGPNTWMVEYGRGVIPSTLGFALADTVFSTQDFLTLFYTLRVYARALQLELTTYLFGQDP

[2] = target: T1, Sigma intracellular receptor 2 (Rattus norvegicus, UniProt Q5U3Y7); assay: Displacement of [3H]-DTG from S2R in rat liver membranes after 120 mins by scintillation counting assay; assay type: cell membranes, Membrane
T1 sequence (Q5U3Y7 whole entry): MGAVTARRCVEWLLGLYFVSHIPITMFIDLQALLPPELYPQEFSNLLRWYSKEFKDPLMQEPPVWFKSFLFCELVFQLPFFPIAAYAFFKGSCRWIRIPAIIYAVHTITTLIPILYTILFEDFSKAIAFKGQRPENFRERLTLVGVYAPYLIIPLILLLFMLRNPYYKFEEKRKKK

[3] = Displacement of [3H]-ifenprodil from GluN1a/GluN2B (unknown origin) expressed in mouse L(tk-) cell membranes after 120 mins by scintillation counting analysis; design: species or system Homo sapiens
[4] = Selectivity ratio of Ki for S2R in rat liver membranes to Ki for S1R in guinea pig brain cortex membranes; assay type: cell membranes
[5] = target: Acetylcholinesterase (Electrophorus electricus, UniProt O42275); assay: Inhibition of electric eel AChE using acetylthiocholine iodide as substrate preincubated for 5 mins followed by substrate addition and measured after 2 mins by Ellman's method
Sequence of Acetylcholinesterase (O42275 whole entry): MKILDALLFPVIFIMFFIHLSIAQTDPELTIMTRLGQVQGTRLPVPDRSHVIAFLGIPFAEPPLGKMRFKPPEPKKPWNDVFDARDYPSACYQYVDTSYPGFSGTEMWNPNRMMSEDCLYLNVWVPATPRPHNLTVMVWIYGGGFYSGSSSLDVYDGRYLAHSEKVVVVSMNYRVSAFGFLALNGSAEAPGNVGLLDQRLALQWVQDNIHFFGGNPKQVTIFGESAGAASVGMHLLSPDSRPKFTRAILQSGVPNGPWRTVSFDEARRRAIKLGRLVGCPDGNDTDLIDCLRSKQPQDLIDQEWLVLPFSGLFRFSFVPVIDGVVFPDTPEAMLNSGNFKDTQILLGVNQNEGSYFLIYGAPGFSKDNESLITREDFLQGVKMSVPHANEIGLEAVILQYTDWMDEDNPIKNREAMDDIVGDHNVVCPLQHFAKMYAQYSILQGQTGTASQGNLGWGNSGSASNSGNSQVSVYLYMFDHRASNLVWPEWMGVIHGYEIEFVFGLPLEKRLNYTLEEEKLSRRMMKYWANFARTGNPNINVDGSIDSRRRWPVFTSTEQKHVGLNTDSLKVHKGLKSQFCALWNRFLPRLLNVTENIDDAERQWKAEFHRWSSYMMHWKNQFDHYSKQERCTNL

[6] = Antioxidant activity assessed as DPPH free radical scavenging at 465 uM after 20 mins by UV-Vis spectrophotometric analysis relative to control; assay type: functional
[7] = system: SH-SY5Y; assay: Cytotoxicity against human SH-SY5Y cells assessed as reduction in cell viability after 24 hrs by MTS assay; assay type: cell-based; settings: for Activity: human, sh-sy5y
[8] = system: SH-SY5Y; assay: Cytotoxicity against human SH-SY5Y cells assessed as reduction in cell viability after 48 hrs by MTS assay; assay type: cell-based; settings: for Activity: human, sh-sy5y
[9] = system: SH-SY5Y; assay: Neuroprotection against H2O2-induced oxidative stress in human SH-SY5Y cells assessed as reduction in ROS generation at 10 uM preincubated for 3 hrs followed by DCFDA addition for 45 mins and subsequent co-treatment with compound and H2O2 for 24 hrs by fluorescence assay relative to control; assay type: functional
[10] = in vitro; settings: human, SH-SY5Y cells
Description: Cytotoxicity against human SH-SY5Y cells assessed as cell viability at 10 uM after 24 hrs by MTS assay relative to control

[11] = in vitro; settings: human, SH-SY5Y cells; remark: listed apart in the source
[12] = in vitro; settings: human, SH-SY5Y cells; remark: listed apart in the source
Description: Cytotoxicity against human SH-SY5Y cells assessed as cell viability at 50 uM after 24 hrs by MTS assay relative to control

[13] = in vitro; settings: human, SH-SY5Y cells; remark: listed apart in the source
Description: Cytotoxicity against human SH-SY5Y cells assessed as cell viability at 10 uM after 48 hrs by MTS assay relative to control

[14] = in vitro; settings: human, SH-SY5Y cells; remark: listed apart in the source
[15] = in vitro; settings: human, SH-SY5Y cells; remark: listed apart in the source
Description: Cytotoxicity against human SH-SY5Y cells assessed as cell viability at 50 uM after 48 hrs by MTS assay relative to control

[16] = Antioxidant activity assessed as DPPH free radical scavenging after 20 mins by UV-Vis spectrophotometric analysis; assay type: functional
[17] = Neurotrophic activity in Sprague-Dawley rat embryo DRG neuron assessed as increase in neurite length at 2.5 uM after 24 hrs relative to control; assay type: functional
[18] = Neurotoxicity in Sprague-Dawley rat embryo DRG neuron at 2.5 to 5 uM after 24 to 48 hrs; assay type: toxicity
[19] = Neurotoxicity in Sprague-Dawley rat embryo DRG neuron at 10 uM after 24 hrs; assay type: toxicity
[20] = Neurotoxicity in Sprague-Dawley rat embryo DRG neuron at 10 uM after 48 hrs; assay type: toxicity

Row | SMILES | Ki [1] [nM] | Ki [2] [nM] | Ki [3] [nM] | Ratio Ki [4] | IC50 [5] [nM] | Activity [6] [%] | Activity [7] | Activity [8] | viability at 24 h, 10 µM [10] [%] | viability at 24 h, 25 µM [11] [%] | viability at 24 h, 50 µM [12] [%] | viability at 48 h, 10 µM [13] [%] | viability at 48 h, 25 µM [14] [%] | viability at 48 h, 50 µM [15] [%] | further results
1 | O=C(CCN1CCOCC1)c1ccccc1 | 606 | > 1000 | > 1000 | – | – | – | – | – | – | – | – | – | – | – | –
2 | COc1ccc2cc(C(=O)CCCN3CCC(Cc4ccccc4)CC3)ccc2c1 | 68 | 107 | 20 | 1.6 | 4280 | – | – | – | – | – | – | – | – | – | –
3 | COc1ccc(C(=O)CCN2CCC(Cc3ccccc3)CC2)cc1.Cl | 11 | 2400 | 198 | 218 | 22000 | 2.8 | Dose-dependent effect | Dose-dependent effect | 99.9 | 63.9 | 56.5 | 97.4 | 50.2 | 44.7 | Activity [9]: inactive
4 | COc1cccc(C(=O)CCCN2CCC(Cc3ccccc3)CC2)c1.Cl | 17 | 43 | 49 | 2.5 | 7640 | 32 | Dose-dependent effect | Dose-dependent effect | 100 | 100 | 98 | 94.8 | 85.6 | 65 | –
5 | Cl.O=C(CCN1CCOCC1)c1ccc2ccccc2c1 | – | > 1000 | > 1000 | – | – | 8.14 | Dose-dependent effect | Dose-dependent effect | 77 | 48 | 49 | 79 | 38 | 37 | –
6 | COc1ccc2cc(C(=O)CN3CCC(Cc4ccccc4)CC3)ccc2c1 | 286 | 1400 | > 1000 | 4.9 | – | – | – | – | – | – | – | – | – | – | –
7 | O=C(CCN1CCC(Cc2ccccc2)CC1)c1ccc2ccccc2c1 | 211 | 6200 | > 1000 | 29.4 | 18600 | – | – | – | – | – | – | – | – | – | –
8 | Cl.O=C(CCN1CCC(Cc2ccccc2)CC1)c1ccccc1 | 16 | 5800 | 39 | 363 | – | 25.9 | Dose-dependent effect | Dose-dependent effect | 93 | 48 | 49 | 106 | 44 | 36 | –
9 | O=C(CCN1CCCCC1)c1ccccc1 | 171 | 749 | > 1000 | 4.4 | – | – | – | – | – | – | – | – | – | – | –
10 | COc1ccc(C(=O)CN2CCC(Cc3ccccc3)CC2)cc1.Cl | 27 | 2000 | 16 | 74 | – | 65.6 | Dose-dependent effect | Dose-dependent effect | 103 | 98.4 | 87 | 85.5 | 69.3 | 52.5 | IC50 [16]: 147000 nM
11 | COc1ccc(C(=O)CCCN2CCC(Cc3ccccc3)CC2)cc1.Cl | 31 | 111 | 96 | 6.8 | 12800 | 12.9 | Dose-dependent effect | Dose-dependent effect | 100 | 100 | 84.4 | 97.3 | 87 | 61 | –
12 | Cl.O=C(CN1CCC(Cc2ccccc2)CC1)c1ccc2ccccc2c1 | – | 802 | 139 | 30 | 9130 | 65.7 | Dose-dependent effect | Dose-dependent effect | 107 | 104 | 81.3 | 89.5 | 77.6 | 48.4 | IC50 [16]: 86800 nM; IC50 ([7]; Homo sapiens, SH-SY5Y): 52000 nM; IC50 ([8]; Homo sapiens, SH-SY5Y): 57000 nM; Activity [9]: <=43%; Activity [17]: 15%; Activity [18]: Non-Toxic; Activity [19]: Toxic; Activity [20]: Non-Toxic
13 | Cl.O=C(CCCN1CCC(Cc2ccccc2)CC1)c1ccccc1 | 9 | 47 | 39 | 5.2 | 13100 | 29.3 | Dose-dependent effect | Dose-dependent effect | 100 | 100 | 87 | 96 | 95 | 54 | –
14 | O=C(CCN1CCC(Cc2ccccc2)CC1)c1ccc(-c2ccccc2)cc1 | 167 | 3900 | > 1000 | 23.4 | – | – | – | – | – | – | – | – | – | – | –
15 | CC(C(O)c1ccc(O)cc1)N1CCC(Cc2ccccc2)CC1 (centres undefined) [IFENPRODIL] | – | – | 10 | – | – | – | – | – | – | – | – | – | – | – | –
16 | C[C@H](CCN1CCCCC1)c1ccc(-c2ccccc2)cc1 | – | 45 | > 1000 | 25 | – | – | – | – | 100 | 100 | 86 | 84 | 77.1 | 57.3 | Activity [9]: inactive
17 | O=C(CN1CCC(Cc2ccccc2)CC1)c1ccccc1 | 75 | 2300 | 215 | 30.7 | – | – | – | – | – | – | – | – | – | – | –
18 | Cl.O=C(CCN1CCCCC1)c1ccc2ccccc2c1 | – | 178 | > 1000 | 81 | – | 18.3 | Dose-dependent effect | Dose-dependent effect | 98.6 | 66.4 | 65.4 | 70.3 | 42 | 40 | –
19 | O=C(CN1CCC(Cc2ccccc2)CC1)c1ccc(-c2ccccc2)cc1 | – | > 1000 | > 1000 | – | – | – | – | – | – | – | – | – | – | – | –
20 | O=C(CCCN1CCC(Cc2ccccc2)CC1)c1ccc(-c2ccccc2)cc1 | 135 | 704 | 96 | 5.2 | 13900 | – | – | – | – | – | – | – | – | – | –
21 | COc1cccc(C(=O)CN2CCC(Cc3ccccc3)CC2)c1 | 131 | 1500 | 11 | 11.5 | 32800 | – | – | – | – | – | – | – | – | – | –
22 | COc1ccc(C(=O)CCN2CCCCC2)cc1.Cl | 7.9 | 2100 | 1700 | 256 | – | 14.4 | Dose-dependent effect | Dose-dependent effect | 119 | 86 | 63 | 104 | 49.4 | 43.4 | –
23 | COc1ccc(C(=O)CCN2CCOCC2)cc1 | 301 | > 1000 | > 1000 | – | – | – | – | – | – | – | – | – | – | – | –
24 | Cl.O=C(CCCN1CCC(Cc2ccccc2)CC1)c1ccc2ccccc2c1 | 24 | 58 | 26 | 2.4 | – | 31.6 | Dose-dependent effect | Dose-dependent effect | 80.2 | 86 | 86 | 77 | 57 | 61 | –
25 | Cl.O=C(CCN1CCOCC1)c1ccc(-c2ccccc2)cc1 | – | > 1000 | 723 | – | – | 22.1 | Dose-dependent effect | Dose-dependent effect | 100 | 73 | 83.3 | 100 | 66 | 62.4 | –
26 | COc1cc(/C=C/C(=O)CC(=O)/C=C/c2ccc(O)c(OC)c2)ccc1O [CURCUMIN] | – | – | – | – | – | 71.3 | – | – | 100 | 76.5 | 71.5 | 100 | 58.7 | 59 | IC50 [16]: 13500 nM; Activity [9]: 0%
